Earlier results, collected in PubChem BioAssay AID1259409 (Chemical Carcinogenesis Research Information System (CCRIS), 2018).

Test system: rodent chemically induced tumor inhibition, incidence and multiplicity
Assay: CCRIS tumor inhibitor studies
Details: Carcinogen: 2,2'-DIHYDROXY-DI-N-PROPYLNITROSAMINE, 53609-64-6, 13147-25-6, Carcinogen: 2,2'-DIHYDROXY-DI-N-PROPYLNITROSAMINE, 53609-64-6, 13147-25-6, Dose [Inhibitor]: 0, Route [Inhibitor]: ORAL, Species: RAT, Strain/Sex: F344/MALE, Promoter: NONE USED

Question: What does the source list for COc1cc(/C=C/C(=O)O[C@H]2CC[C@]34C[C@]35CC[C@]3(C)[C@@H]([C@H](C)CCC=C(C)C)CC[C@@]3(C)[C@@H]5CC[C@H]4C2(C)C)ccc1O?
Answer: tumour outcome (control, treated, inhibition, significance) (N-ETHYL-N-HYDROXYETHYL- NITROSAMINE, 3,2'-DIMETHYL-4-, N-ETHYL-N-HYDROXYETHYL- NITROSAMINE, 3,2'-DIMETHYL-4-, 1% IN DIET BEGINNING 1 WK POST LAST CARCINOGEN DOSE AND CONTINUING FOR 32 WK (STUDY DURATION: 36 WK), Target Tissue: Type of Lesion: LIVER: HEPATOCELLULAR CARCINOMA, Dose [Carcinogen]: 1000 MG/KG IP DHPN 2X, 1500 MG/KG GAV EHEN 2X AND 75 MG/KG SC DMAB 3X GIVEN OVER THE INITIAL 3 WK PERIOD AT 3-4 D INTERV): 6/14 (43%), 3/13 (23%), 47%, not calculated; tumour outcome (control, treated, inhibition, significance) (N-ETHYL-N-HYDROXYETHYL- NITROSAMINE, 3,2'-DIMETHYL-4-, N-ETHYL-N-HYDROXYETHYL- NITROSAMINE, 3,2'-DIMETHYL-4-, 1% IN DIET BEGINNING 1 WK POST LAST CARCINOGEN DOSE AND CONTINUING FOR 32 WK (STUDY DURATION: 36 WK), Target Tissue: Type of Lesion: LUNG: ADENOMA, Dose [Carcinogen]: 1000 MG/KG IP DHPN 2X, 1500 MG/KG GAV EHEN 2X AND 75 MG/KG SC DMAB 3X GIVEN OVER THE INITIAL 3 WK PERIOD AT 3-4 D INTERV): 7/14 (50%), 11/13 (85%), -70%, not calculated; tumour outcome (control, treated, inhibition, significance) (N-ETHYL-N-HYDROXYETHYL- NITROSAMINE, 3,2'-DIMETHYL-4-, N-ETHYL-N-HYDROXYETHYL- NITROSAMINE, 3,2'-DIMETHYL-4-, 1% IN DIET BEGINNING 1 WK POST LAST CARCINOGEN DOSE AND CONTINUING FOR 32 WK (STUDY DURATION: 36 WK), Target Tissue: Type of Lesion: LUNG: CARCINOMA, Dose [Carcinogen]: 1000 MG/KG IP DHPN 2X, 1500 MG/KG GAV EHEN 2X AND 75 MG/KG SC DMAB 3X GIVEN OVER THE INITIAL 3 WK PERIOD AT 3-4 D INTERV): 1/14 (7%), 7/13 (54%), -671%, p<0.05; outcome (N-ETHYL-N-HYDROXYETHYL- NITROSAMINE, 3,2'-DIMETHYL-4-, N-ETHYL-N-HYDROXYETHYL- NITROSAMINE, 3,2'-DIMETHYL-4-, 1% IN DIET BEGINNING 1 WK POST LAST CARCINOGEN DOSE AND CONTINUING FOR 32 WK (STUDY DURATION: 36 WK), Target Tissue: Type of Lesion: URINARY BLADDER: PAPILLOMA, Dose [Carcinogen]: 1000 MG/KG IP DHPN 2X, 1500 MG/KG GAV EHEN 2X AND 75 MG/KG SC DMAB 3X GIVEN OVER THE INITIAL 3 WK PERIOD AT 3-4 D INTERV): 0/14 (0%), 3/13 (23%), -100%, not calculated; tumour outcome (control, treated, inhibition, significance) (N-ETHYL-N-HYDROXYETHYLNITROSAMINE, 3,2'-DIMETHYL-4-AMINO-, N-ETHYL-N-HYDROXYETHYLNITROSAMINE, 3,2'-DIMETHYL-4-AMINO-, 1% IN DIET FOR 32 WK BEGINNING 1 WK POST CARCINOGEN TREATMENT (STUDY DURATION: 36 WK), Target Tissue: Type of Lesion: KIDNEY: ADENOMA, Dose [Carcinogen]: 1000 MG/KG BW DHPN TWICE , 1500 MG/KG BW EHEN TWICE, 75 MG/KG BW 3 TIMES ADMINISTERED OVER FIRST 3 WK): 6/14 (43%), 9/13 (69%), -60%, not significant; tumour outcome (control, treated, inhibition, significance) (N-ETHYL-N-HYDROXYETHYLNITROSAMINE, 3,2'-DIMETHYL-4-AMINO-, N-ETHYL-N-HYDROXYETHYLNITROSAMINE, 3,2'-DIMETHYL-4-AMINO-, 1% IN DIET FOR 32 WK BEGINNING 1 WK POST CARCINOGEN TREATMENT (STUDY DURATION: 36 WK), Target Tissue: Type of Lesion: KIDNEY: NEPHROBLASTOMA, Dose [Carcinogen]: 1000 MG/KG BW DHPN TWICE, 1500 MG/KG BW EHEN TWICE, 75 MG/KG BW 3 TIMES ADMINISTERED OVER FIRST 3 WK): 2/14 (14%), 0/13 (0%), 100%, not significant; tumour outcome (control, treated, inhibition, significance) (N-ETHYL-N-HYDROXYETHYLNITROSAMINE, 3,2'-DIMETHYL-4-AMINO-, N-ETHYL-N-HYDROXYETHYLNITROSAMINE, 3,2'-DIMETHYL-4-AMINO-, 1% IN DIET FOR 32 WK BEGINNING 1 WK POST CARCINOGEN TREATMENT (STUDY DURATION: 36 WK), Target Tissue: Type of Lesion: KIDNEY: TRANSITIONAL CELL CARCINOMA, Dose [Carcinogen]: 1000 MG/KG BW DHPN TWICE , 1500 MG/ KG BW EHEN TWICE, 75 MG/KG BW 3 TIMES ADMINISTERED OVER FIRST THREE WEEKS): 1/14 (7%), 2/13 (15%), -114%, not significant; tumour outcome (control, treated, inhibition, significance) (N-ETHYL-N-HYDROXYETHYLNITROSAMINE, 3,2'-DIMETHYL-4-AMINO-, N-ETHYL-N-HYDROXYETHYLNITROSAMINE, 3,2'-DIMETHYL-4-AMINO-, 1% IN DIET FOR 32 WK BEGINNING 1 WK POST CARCINOGEN TREATMENT (STUDY DURATION: 36 WK), Target Tissue: Type of Lesion: LARGE INTESTINE: CARCINOMA, Dose [Carcinogen]: 1000 MG/KG BW DHPN TWICE, 1500 MG/KG BW EHEN TWICE, 75 MG/KG BW 3 TIMES ADMINISTERED OVER 3 WK): 3/14 (21%), 6/13 (46%), -119%, not significant; tumour outcome (control, treated, inhibition, significance) (N-ETHYL-N-HYDROXYETHYLNITROSAMINE, 3,2'-DIMETHYL-4-AMINO-, N-ETHYL-N-HYDROXYETHYLNITROSAMINE, 3,2'-DIMETHYL-4-AMINO-, 1% IN DIET FOR 32 WK BEGINNING 1 WK POST CARCINOGEN TREATMENT (STUDY DURATION: 36 WK), Target Tissue: Type of Lesion: LIVER: HEPATOCELLULAR CARCINOMA, Dose [Carcinogen]: 1000 MG/KG BW DHPN TWICE , 1500 MG/KG BW EHEN TWICE 75 MG/KG BW 3 TIMES ADMINISTERED OVER FIRST 3 WK): 6/14 (43%), 3/13 (23%), 47%, not significant
